Reference: PubChem BioAssay (NCI)
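Results reflect a 48-hour exposure of cells in 96-well plates to compound at five concentrations. The concentration for full growth arrest is given as TGI.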 Where a SMILES comes first, the peptide text is derived from it. [ ]: non-standard residue; d: D form.

Experiments:
Assay in all cases: NCI tumour cell line growth inhibition, 48 h
DMS 114 small cell lung = tested on: DMS 114 small cell lung
HOP-18 NSCLC = tested on: HOP-18 NSCLC
P388 leukemia = tested on: P388 leukemia
SN12K1 renal = tested on: SN12K1 renal
P388/ADR leukemia = tested on: P388/ADR leukemia
RXF-631 renal = tested on: RXF-631 renal

Row | Compound | TGI (DMS 114 small cell lung) [µM] | TGI (HOP-18 NSCLC) [µM] | TGI (P388 leukemia) [µM] | TGI (SN12K1 renal) [µM] | TGI (P388/ADR leukemia) [µM] | TGI (RXF-631 renal) [µM]
1 | NC(=Nc1ccccc1)N/N=C/c1c[nH]c2ccccc12 | 2.03 | 73 | – | – | – | –
2 | O=C1Sc2ccccc2C(=O)N2CCSC12 (stereo not drawn) | > 100 | > 100 | – | – | – | –
3 | Cc1cc(C)[n+]2c(c1)C=CC2 | 93.3 | – | – | – | – | –
4 | O=S(=O)(O)c1cc(S(=O)(=O)O)c2cc(N=Nc3ccc(N=Nc4ccc(/C=C/c5ccc(N=[N+]([O-])c6ccc(/C=C/c7ccc(N=Nc8ccc(N=Nc9ccc%10cc(S(=O)(=O)O)cc(S(=O)(=O)O)c%10c9)cc8)cc7S(=O)(=O)O)c(S(=O)(=O)O)c6)cc5S(=O)(=O)O)c(S(=O)(=O)O)c4)cc3)ccc2c1 | > 100 | > 85.8 | > 31.2 | > 100 | – | –
5 | N#CC1=C(O)NC(O)=C(C#N)C1c1c(Cl)cccc1Cl | 46 | > 100 | – | – | – | –
6 | CC(C)C[C@H](NC(=O)[C@H](CC(C)C)NC(=O)[C@@H](Cc1c[nH]c2ccccc12)NC(=O)[C@H](Cc1ccccc1)NC(=O)[C@@H](Cc1c[nH]c2ccccc12)NC(=O)[C@H](CCC(N)=O)NC(=O)[C@@H](CCC(N)=O)NC(=O)[C@@H]1CCCN1C(=O)[C@@H](CCCCN)NC(=O)[C@H]1CCCN1C(=O)[C@H](N)CCCN=C(N)N)C(N)=O (H-[dR][dP][dK]P[dQ]Q[dW]F[dW]LL-NH2) | > 100 | > 100 | > 100 | > 100 | > 100 | –
7 | N=C1C=CC(=C(c2ccc(N)cc2)c2ccc(N)cc2)C=C1 | 15.4 | – | – | – | – | –
8 | COCC(C#N)NC1CC(OC2CC(O)(C(=O)CO)Cc3c(O)c4c(c(O)c32)C(=O)c2c(OC)cccc2C4=O)OC(C)C1O (stereo not drawn) | 0.176 | 70.8 | – | – | – | 2.35
9 | Clc1ccc(C2SCc3nc4ccccc4n32)cc1 (stereo not drawn) | 37.4 | > 100 | – | – | – | > 100
